Test results as given in patent US20150018305A1, “SIRTUIN INDUCER, TISSUE REPAIRING AGENT, HEPATOCYTE GROWTH FACTOR INDUCER, TISSUE HOMEOSTASIS MAINTENANCE AGENT, AND TLR4 AGONIST, HAVING HYALURONIC ACID FRAGMENT AS ACTIVE INGREDIENT” (HYALURONAN RESEARCH INSTITUTE, INC., priority 2012, published 2015).

Tests used:
[1] = test system: human large intestine epithelial cells (HT29 cells); experiment: Hydrogen peroxide induced aging of human large intestine epithelial cells, MTS assay (Test Examples 16-18); type: cell-based; settings: for suppression of cellular aging (MTS value, OD 490 nm): hydrogen peroxide 10 μM 15 min
Procedure: Human large intestine epithelial cells (HT29 cells) were experienced cellular aging (decline in mitochondrial activity due to injury, or a drop in the MTS value once cell death occurs) due to stimulation by the hydrogen peroxide when treated with hydrogen peroxide, and it was investigated whether this process is affected by treatment with the hyaluronic acid fragment. Specifically, the following test was performed.
Using a DMEM culture medium (made by Wako Pure Chemical Industries, Ltd.), human large intestine epithelial cells (HT29 cells) were cultured by usual methods at 37° C. under 5% CO2. Hydrogen peroxide was added to the culture medium to a final concentration of 10 μM to bring about stimulation for a 15-minute period, and the culture broth was then transferred to DMEM culture medium containing no hyaluronic acid fragments; to DMEM culture medium containing hyaluronic acid fragment (4mer) in a final concentration of 100 ng/ml; or to DMEM culture medium containing the hyaluronic acid fragment (4mer) plus TLR4/MD2 in a final concentration of 10 μg/ml, and cultured for 3 hours.
After 3 hours had passed, an MTS assay was performed. On the basis of the action, in which MTS is converted to formazan by dehydrogenation in the mitochondria of the cell, OD 490 nm was measured to measure mitochondrial function.
Using hyaluronic acid fragment (4mer), hyaluronic acid fragment (L4mer) and hyaluronic acid fragment (L3mer) as test substances, tests similar to those of Test Example 16 were performed, except that the culture time following transfer to the culture medium containing the test substance was one hour.
Tests similar to those of Test Example 16 were performed, except for using hyaluronic acid fragment (L4mer), and hyaluronic acid fragment (L3mer) as test substances.

[2] = test system: sirtuin enzymatic activity (sirt1 enzymatic activity); experiment: Sirtuin enzymatic activity in cell solution of human epidermal keratinocytes, CycLex SIRT1/Sir2 Deacetylase Fluorometric Assay Kit (Test Example 2); type: cell-based; settings: 10 ng/ml final concentration; cell crude extract
Procedure: Human epidermal keratinocytes were treated in the same manner as in Test Example 1, except that the final concentration of the hyaluronic acid fragment was 10 ng/ml, the size thereof being four sugar units (4mer), six sugar units (6mer), or 10 sugar units (10mer), while measuring the sirtuin enzymatic activity (sirt1 enzymatic activity) in the cell solution thereof. For purposes of comparison, 10 kDa or 900 kDa hyaluronic acid, and resveratrol, a known sirtuin activator, were likewise tested at 10 ng/ml final concentration. A human sirtuin recombinant protein (recombinant human sirt1) produced through genetic recombination techniques was used as a substance for verification of the measurement system. Sirtuin enzymatic activity in the cell crude extract was measured with the CycLex SIRT1/Sir2 Deacetylase Fluorometric Assay Kit (trade name of CycLex), following the protocol of the kit.

Row | SMILES | suppression of cellular aging (MTS value, OD 490 nm) ([1]; then 100 ng/ml for 3 hours) | suppression of cellular aging (MTS value, OD 490 nm) ([1]; then test substance for one hour) | suppression of cellular aging with TLR4/MD2 added (MTS) ([1]; hydrogen peroxide 10 μM, 100 ng/ml plus TLR4/MD2 10 μg/ml, 3 hours) | sirtuin enzymatic activity (sirt1 enzymatic activity) compared with negative control [2]
1 | CC(=O)NC1C(O[C@@H]2OC(C(=O)O)[C@@H](O[C@@H]3OC(CO)[C@@H](O)C(O[C@@H]4OC(C(=O)O)[C@@H](O)C(O)C4O)C3NC(C)=O)C(O)C2O)[C@H](O)C(CO)O[C@H]1OCCCN=[N+]=[N-] (stereo partly shown) [L4mer] | showed effect in suppressing cellular aging | showed effect in suppressing cellular aging | inhibited by the addition of TLR4/MD2 | 
2 | Oc1ccc(C=Cc2cc(O)cc(O)c2)cc1 [resveratrol, reference compound] |  |  |  | No change was observed
